IC50, ED50 and Activity data for 22 molecules are collected here from ChEMBL document CHEMBL1132852, “Synthesis and structure-activity relationships of 4-oxo-1-phenyl-3,4,6,7-tetrahydro-[1,4]diazepino[6,7,1-hi]indoles: novel PDE4 inhibitors” (Bioorg Med Chem Lett, 2000).

The target of experiment [1] is Phosphodiesterase 3 (Homo sapiens, UniProt Q14432+Q13370). Put plainly: Inhibition of Phosphodiesterase 3 extracted from dog aorta smooth muscle cells by using radioligands [3H]cAMP or [3H]-cGMP. Also on record: species or system Canis lupus familiaris. Particulars: target entry is the homologue from another species.
Experiment [2] deals with Phosphodiesterase 4 (Homo sapiens, UniProt P27815+Q08499+Q07343+Q08493). Put plainly: Inhibition of phosphodiesterase 4 extracted from human U937 cells by using radioligands [3H]-cAMP or [3H]cGMP. The class given is cell-free. Particulars: u-937.
For experiment [3], the target named is Phosphodiesterase, PDE1/PDE5 (Homo sapiens, UniProt O76074+P54750+Q01064+Q14123). The experiment in a line: Inhibitory activity against phosphodiesterase 1/5 (PDE1/5) extracted from guinea pig trachea smooth muscle cells by using radioligands [3H]-cAMP or [3H]cGMP. The conditions noted are these: target entry is the homologue from another species. The experiment is classed as tissue-based, Cavia porcellus.

Experiment [4] concerns Rattus norvegicus. The experiment in a line: Inhibition of antigen-induced lung eosinophilia in ovalbumin sensitized brown-norway rats after oral administration. The experiment is classed as functional.
The target in experiment [5] is Phosphodiesterase 4 (Rattus norvegicus, UniProt P14270+P14646+P14644+P54748). Put plainly: Displacement of [3H]rolipram from rat brain membrane suspensions. The class given is functional, tissue-based. In general terms: Displacement assays read how much labelled ligand stays bound in the presence of the test substance.
Experiment [6] relates to Canis familiaris. Put plainly: Emetic effect in dogs administered at 3 mg/kg intravenously (No effect). Particulars: Canis lupus familiaris. Also on record: dose 3 mg/kg. The experiment is classed as functional, organism-based.
Experiment [7] relates to Canis familiaris. Put plainly: Emetic effect in dogs administered at 0.03 mg/kg intravenously (No effect). The experiment is classed as functional, organism-based. The conditions noted are these: Canis lupus familiaris. The arrangement: dose 0.03 mg/kg.
Experiment [8] relates to Canis familiaris. Put plainly: Emetic effect in dogs administered at 3 mg/kg intravenously (no effect). The experiment is classed as functional, organism-based. The arrangement: dose 3 mg/kg. The conditions noted are these: Canis lupus familiaris.

Active and inactive are the calls of the source. The calls are words filed in the database; no cut-off is given here.

As to `Cc1cc2c3c(c1)C(c1ccccc1)=N[C@@H](NC(=O)c1ccc(Cl)cc1)C(=O)N3CC2`, the IC50 in experiment [1] was 27 µM; in experiment [2], 1.25 µM; in experiment [3], > 100 µM.
Regarding `O=C(N[C@@H]1N=C(c2ccccc2)c2cccc3c2N(CC3)C1=O)c1cc2ccccc2cn1`, the IC50 in experiment [1] is > 100 µM; in experiment [2], 4.2 µM; in experiment [3], > 100 µM.
As for `Cc1cc2c3c(c1)C(c1ccccc1)=N[C@@H](NC(=O)c1cc(Cl)cc(Cl)c1)C(=O)N3CC2`, the IC50 in experiment [1] was 43.7 µM; in experiment [2], 1.15 µM; in experiment [3] it was > 100 µM.
For `Cc1cc2c3c(c1)C(c1ccccc1)=N[C@@H](NC(=O)c1cc4ccccc4cn1)C(=O)N3CC2`, in experiment [4], the ED50 turned out to be 10.7 mg/kg. Further, the IC50 was > 3 µM in experiment [5], > 100 µM in experiment [1], 2.6 µM in experiment [2] and > 100 µM in experiment [3]. The result in experiment [6] was inactive.
With `O=C(N[C@H]1N=C(c2ccccc2)c2cccc3c2N(CC3)C1=O)c1cc2ccccc2[nH]1`, the figures for the IC50 in experiment [1], in experiment [2] and in experiment [3] were > 100 µM, 100 µM and 100 µM, respectively.
On to `Cc1cc2c3c(c1)C(c1ccccc1)=N[C@@H](NC(=O)c1nnc4cc(C)nn4c1C)C(=O)N3CC2`, for which the IC50 is > 100 µM in experiment [1], 0.71 µM in experiment [2] and > 100 µM in experiment [3].
With `COc1cc2c3c(c1)C(c1ccccc1)=N[C@@H](NC(=O)c1cc4ccccc4[nH]1)C(=O)N3CC2`, the IC50 in experiment [1] was > 100 µM; in experiment [2] it was 0.65 µM; in experiment [3] it was 100 µM.
`O=C(NC1N=C(c2ccccc2F)c2cc(Cl)cc3c2N(CC3)C1=O)c1cc2ccccc2[nH]1` (stereo not given): the IC50 in experiment [1] and in experiment [2] was > 100 µM each time.
Consider `Cc1cc2c3c(c1)C(c1ccccc1)=N[C@@H](NC(=O)c1cc(Cl)c(N)c(Cl)c1)C(=O)N3CC2`, for which the figures for the IC50 in experiment [1], in experiment [2] and in experiment [3] were 17.5 µM, 0.33 µM and > 100 µM, respectively.
For `COc1ccc(C(=O)N[C@@H]2N=C(c3ccccc3)c3cc(C)cc4c3N(CC4)C2=O)c(OC)c1`, the IC50 in experiment [1] was found to be 7.85 µM; in experiment [2], 0.96 µM.
For `O=C(NC1N=C(c2ccccc2)c2cccc3c2N(CCC3)C1=O)c1cc2ccccc2[nH]1` (stereo not given), the IC50 in experiment [1], in experiment [2] and in experiment [3] was > 100 µM throughout.
`Nc1c(Cl)cc(C(=O)N[C@@H]2N=C(c3ccccc3)c3cccc4c3N(CC4)C2=O)cc1Cl`: the results for the IC50 in experiment [1], in experiment [2] and in experiment [3] were > 100 µM, 0.63 µM and > 100 µM, respectively.
For the molecule `O=C(NC1N=C(c2ccccc2)c2ccccc2NC1=O)c1cc2ccccc2[nH]1` (stereo not given), the 50% inhibitory concentration (IC50) in experiment [1] and in experiment [2] was > 100 µM in each case.
`COc1ccc(C2CNC(=O)C2)cc1OC1CCCC1` (stereo not given): the result in experiment [7] was inactive.
For `Cc1cc2c3c(c1)C(c1ccccc1)=N[C@@H](NC(=O)c1ccncc1)C(=O)N3CC2`, the outcome in experiment [8] was inactive. The ED50 in experiment [4] is 6.9 mg/kg. The IC50 is > 100 µM in experiment [1], 1.14 µM in experiment [2] and > 100 µM in experiment [3].
Regarding `O=C(N[C@@H]1N=C(c2ccccc2)c2cccc3c2N(CC3)C1=O)c1cc2ccccc2[nH]1`, the IC50 is > 100 µM in experiment [1], 4 µM in experiment [2] and > 100 µM in experiment [3].
On to `COc1cc2c3c(c1)C(c1ccccc1)=N[C@@H](NC(=O)c1cc4ccccc4cn1)C(=O)N3CC2`, for which the IC50 in experiment [1] came to 82 µM; in experiment [2], 1.62 µM; in experiment [3] it was 65.3 µM.
As for `O=C(N[C@@H]1N=C(c2ccccc2)c2cc(O)cc3c2N(CC3)C1=O)c1cc2ccccc2cn1`, the half-inhibitory concentration (IC50) in experiment [1] was > 3.5 µM; in experiment [2], 0.41 µM; in experiment [3], > 100 µM.
With `O=C(N[C@@H]1N=C(c2ccccc2F)c2cccc3c2N(CC3)C1=O)c1cc2ccccc2[nH]1`, the IC50 in experiment [1] and in experiment [2] was > 100 µM in each case.
Consider `COc1ccccc1C(=O)N[C@@H]1N=C(c2ccccc2)c2cc(C)cc3c2N(CC3)C1=O`, for which the IC50 in experiment [1] was > 100 µM; in experiment [2] it was 0.76 µM; in experiment [3], 71.7 µM.
Regarding `Cc1cc2c3c(c1)C(c1ccccc1)=N[C@@H](NC(=O)c1ccc(Cl)cc1Cl)C(=O)N3CC2`, the IC50 in experiment [1] was 17.5 µM; in experiment [2], 0.76 µM; in experiment [3] it was > 100 µM.
On the same counts, the results for `COc1cc2c3c(c1)C(c1ccccc1)=N[C@@H](NC(=O)c1ccc(Cl)cc1)C(=O)N3CC2` are 62 µM, 1.8 µM and 40 µM.

As a reminder, the IC50 is the point on the concentration scale where inhibition reaches its midpoint. What is called ED50 is the dose that gives a 50% effect, or the effect in half of the subjects.
